Measured values as given in ChEMBL document CHEMBL5126517, “Structure-Activity Relationship in the Leucettine Family of Kinase Inhibitors” (J Med Chem, 2022).
pEC50, pIC50: −log10 of the molar value.

Assays:
[1] = molecular target: Dual specificity protein kinase CLK2 (Mus musculus, UniProt O35491); test: Inhibition of mouse recombinant GST-fused CLK2 expressed in Escherichia coli using GRSRSRSRSRSR peptide as substrate incubated for 30 mins in presence of ATP by scintillation counting method
[2] = molecular target: Glycogen synthase kinase-3 (Sus scrofa, UniProt B2LUN4+I6LNT8); test: Inhibition of porcine brain GSK-3alpha/beta using YRRAAVPPSPSLSRHSSPHQpSEDEEE as substrate incubated for 30 mins in presence of ATP by scintillation counting method; format: tissue-based
[3] = Neurotoxicity against mouse HT-22 cells assessed as cell survival treated for 24 hrs by MTS assay; format: toxicity, cell-based
[4] = molecular target: Dual specificity protein kinase CLK1 (Mus musculus, UniProt P22518); test: Inhibition of GST-fused mouse recombinant CLK1 expressed in Escherichia coli using GRSRSRSRSRSR peptide as substrate incubated for 30 mins in presence of ATP by scintillation counting method
HT-22 [5] = test: Neuroprotective activity against glutamate-induced cell death in mouse HT-22 cells treated for 24 hrs by MTS assay; format: functional, cell-based; settings: HT-22, 24 h
[6] = molecular target: T1, Dual specificity tyrosine-phosphorylation-regulated kinase 2 (Homo sapiens, UniProt Q92630); test: Inhibition of GST-fused human recombinant DYRK2 expressed in Escherichia coli using GRSRSRSRSRSR peptide as substrate incubated for 30 mins in presence of ATP by scintillation counting method
T1 sequence (Q92630 whole entry): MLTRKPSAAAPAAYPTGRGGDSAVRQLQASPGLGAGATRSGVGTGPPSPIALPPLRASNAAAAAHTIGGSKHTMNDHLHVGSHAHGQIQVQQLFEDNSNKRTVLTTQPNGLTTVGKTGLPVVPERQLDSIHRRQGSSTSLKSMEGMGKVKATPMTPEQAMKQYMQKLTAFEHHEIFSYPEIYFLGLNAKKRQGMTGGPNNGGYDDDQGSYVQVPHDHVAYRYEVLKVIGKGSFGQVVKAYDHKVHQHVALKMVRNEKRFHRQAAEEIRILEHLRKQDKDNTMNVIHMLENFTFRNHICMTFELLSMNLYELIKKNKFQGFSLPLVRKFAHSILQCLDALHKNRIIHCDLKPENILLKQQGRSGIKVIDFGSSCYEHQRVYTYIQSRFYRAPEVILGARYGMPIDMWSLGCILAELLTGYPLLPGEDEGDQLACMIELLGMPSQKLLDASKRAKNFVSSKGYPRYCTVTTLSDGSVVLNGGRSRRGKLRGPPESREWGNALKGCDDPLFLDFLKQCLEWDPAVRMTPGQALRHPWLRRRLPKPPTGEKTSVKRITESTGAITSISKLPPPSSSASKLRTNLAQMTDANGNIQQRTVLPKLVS

[7] = molecular target: Dual specificity tyrosine-phosphorylation-regulated kinase 1A (Homo sapiens, UniProt Q13627); test: Inhibition of GST-fused human recombinant DYRK1A expressed in Escherichia coli using GRSRSRSRSRSR peptide as substrate incubated for 30 mins in presence of ATP by scintillation counting method
[8] = molecular target: Serine/threonine-protein kinase pim-1 (Homo sapiens, UniProt P11309); test: Inhibition of human recombinant Pim1 expressed in Escherichia coli using histone H1 as substrate incubated for 30 mins in presence of ATP by scintillation counting method
Cannabinoid receptor 1 = Cannabinoid receptor 1 (Homo sapiens, UniProt P21554); test: Antagonist activity at CP-55940-activated CB1 receptor (unknown origin) at 10 uM by beta-arrestin assay relative to control; format: functional; set-up: scale not given: the % may be the effect or the level left
[9] = molecular target: Dual specificity tyrosine-phosphorylation-regulated kinase 1B (Homo sapiens, UniProt Q9Y463)
U2OS = test: Induction of PI3K/mTor-dependent autophagy in human U2OS cells assessed as number of LC3 foci per cell at 10 uM measured after 4 hrs; format: cell-based; settings: filed as activator
[10] = molecular target: Dual specificity protein kinase CLK4 (Mus musculus, UniProt O35493); test: Inhibition of GST-fused mouse recombinant CLK4 expressed in Escherichia coli using GRSRSRSRSRSR peptide as substrate incubated for 30 mins in presence of ATP by scintillation counting method
[11] = molecular target: T2, Dual specificity tyrosine-phosphorylation-regulated kinase 3 (Homo sapiens, UniProt O43781); test: Inhibition of GST-fused human recombinant DYRK3 expressed in Escherichia coli using GRSRSRSRSRSR peptide as substrate incubated for 30 mins in presence of ATP by scintillation counting method
T2 sequence (O43781 whole entry): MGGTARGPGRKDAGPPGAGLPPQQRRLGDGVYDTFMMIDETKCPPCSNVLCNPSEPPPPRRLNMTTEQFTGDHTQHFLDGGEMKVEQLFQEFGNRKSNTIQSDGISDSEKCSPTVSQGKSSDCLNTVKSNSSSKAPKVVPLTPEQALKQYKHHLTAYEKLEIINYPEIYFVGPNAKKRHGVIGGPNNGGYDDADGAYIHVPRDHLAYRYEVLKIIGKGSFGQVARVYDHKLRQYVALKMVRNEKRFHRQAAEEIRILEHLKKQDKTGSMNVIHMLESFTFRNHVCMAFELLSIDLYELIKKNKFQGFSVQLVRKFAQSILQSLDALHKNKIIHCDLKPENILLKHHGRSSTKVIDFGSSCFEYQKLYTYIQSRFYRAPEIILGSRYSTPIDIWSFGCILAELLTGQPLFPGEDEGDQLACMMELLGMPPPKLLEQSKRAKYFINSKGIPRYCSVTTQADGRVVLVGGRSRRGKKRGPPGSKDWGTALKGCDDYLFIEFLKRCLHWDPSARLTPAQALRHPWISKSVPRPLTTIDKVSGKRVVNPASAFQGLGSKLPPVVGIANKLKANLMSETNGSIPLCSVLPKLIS

[12] = molecular target: Dual specificity protein kinase CLK3 (Mus musculus, UniProt O35492); test: Inhibition of GST-fused mouse recombinant CLK3 expressed in Escherichia coli using GRSRSRSRSRSR peptide as substrate incubated for 30 mins in presence of ATP by scintillation counting method
HT-22 [13] = test: Modulation of CLK1 pre-mRNA splicing in mouse HT-22 cells assessed as inclusion of CLK1 exon 4 by measuring change in threshold cycle at 10 uM measured after 4 hrs by real time PCR analysis; format: cell-based; settings: filed as modulator
[14] = Neurotoxicity against mouse HT-22 cells assessed as cell survival at 20 uM treated for 24 hrs by MTS assay; format: toxicity, cell-based; settings: ht-22, 24 h
Casein kinase 2 = Casein kinase 2 (Homo sapiens, UniProt P67870+P68400+P19784+Q8NEV1); test: Inhibition of human recombinant CK2 using RRRDDDSDDD peptide as substrate incubated for 30 mins in presence of ATP by scintillation counting method; format: protein assay

Dual specificity protein kinase CLK3, sequence (O35492 whole entry, the tested form may be a part): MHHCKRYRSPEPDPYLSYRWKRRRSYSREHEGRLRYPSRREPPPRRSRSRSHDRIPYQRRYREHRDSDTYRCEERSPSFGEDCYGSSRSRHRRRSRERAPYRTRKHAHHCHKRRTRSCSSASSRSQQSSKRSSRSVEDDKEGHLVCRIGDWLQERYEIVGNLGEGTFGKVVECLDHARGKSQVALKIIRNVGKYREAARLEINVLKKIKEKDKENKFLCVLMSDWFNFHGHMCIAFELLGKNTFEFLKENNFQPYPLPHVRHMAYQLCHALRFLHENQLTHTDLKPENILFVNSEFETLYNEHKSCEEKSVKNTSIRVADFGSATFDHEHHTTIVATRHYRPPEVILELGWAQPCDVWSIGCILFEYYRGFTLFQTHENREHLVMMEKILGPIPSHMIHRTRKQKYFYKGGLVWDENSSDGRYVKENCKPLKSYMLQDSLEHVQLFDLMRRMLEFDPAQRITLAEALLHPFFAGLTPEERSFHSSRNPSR
Dual specificity protein kinase CLK2, sequence (O35491 whole entry, the tested form may be a part): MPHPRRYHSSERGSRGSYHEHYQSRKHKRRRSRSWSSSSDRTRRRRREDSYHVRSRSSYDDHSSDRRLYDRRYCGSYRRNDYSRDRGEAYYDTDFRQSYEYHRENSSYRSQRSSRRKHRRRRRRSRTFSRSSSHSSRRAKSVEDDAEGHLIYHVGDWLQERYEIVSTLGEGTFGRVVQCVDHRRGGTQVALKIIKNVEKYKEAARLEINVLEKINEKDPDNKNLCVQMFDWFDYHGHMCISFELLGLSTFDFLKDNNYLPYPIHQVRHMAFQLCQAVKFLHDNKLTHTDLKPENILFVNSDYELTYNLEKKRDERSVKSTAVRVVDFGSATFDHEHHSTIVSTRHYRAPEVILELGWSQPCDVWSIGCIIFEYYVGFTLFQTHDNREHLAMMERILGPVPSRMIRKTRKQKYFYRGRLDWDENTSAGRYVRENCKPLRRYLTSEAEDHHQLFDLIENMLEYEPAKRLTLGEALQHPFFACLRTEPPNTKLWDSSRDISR
Dual specificity tyrosine-phosphorylation-regulated kinase 1B, sequence (Q9Y463 whole entry): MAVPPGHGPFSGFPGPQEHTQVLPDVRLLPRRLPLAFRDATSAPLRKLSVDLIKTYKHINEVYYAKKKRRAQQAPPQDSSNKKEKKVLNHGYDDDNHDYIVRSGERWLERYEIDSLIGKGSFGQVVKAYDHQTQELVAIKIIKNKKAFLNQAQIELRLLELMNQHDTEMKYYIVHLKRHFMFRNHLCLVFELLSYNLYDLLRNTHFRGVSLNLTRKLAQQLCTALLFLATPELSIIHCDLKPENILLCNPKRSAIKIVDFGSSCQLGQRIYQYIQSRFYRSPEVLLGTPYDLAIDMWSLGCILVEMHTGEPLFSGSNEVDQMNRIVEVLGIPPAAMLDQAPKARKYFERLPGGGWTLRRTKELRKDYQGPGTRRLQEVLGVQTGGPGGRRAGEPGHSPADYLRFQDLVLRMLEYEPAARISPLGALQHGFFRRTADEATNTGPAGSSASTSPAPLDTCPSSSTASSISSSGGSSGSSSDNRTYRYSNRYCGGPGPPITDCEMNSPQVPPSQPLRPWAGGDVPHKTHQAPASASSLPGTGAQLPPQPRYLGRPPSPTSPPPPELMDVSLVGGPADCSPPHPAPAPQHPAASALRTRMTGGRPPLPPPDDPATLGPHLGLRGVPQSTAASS
Dual specificity protein kinase CLK4, sequence (O35493 whole entry, the tested form may be a part): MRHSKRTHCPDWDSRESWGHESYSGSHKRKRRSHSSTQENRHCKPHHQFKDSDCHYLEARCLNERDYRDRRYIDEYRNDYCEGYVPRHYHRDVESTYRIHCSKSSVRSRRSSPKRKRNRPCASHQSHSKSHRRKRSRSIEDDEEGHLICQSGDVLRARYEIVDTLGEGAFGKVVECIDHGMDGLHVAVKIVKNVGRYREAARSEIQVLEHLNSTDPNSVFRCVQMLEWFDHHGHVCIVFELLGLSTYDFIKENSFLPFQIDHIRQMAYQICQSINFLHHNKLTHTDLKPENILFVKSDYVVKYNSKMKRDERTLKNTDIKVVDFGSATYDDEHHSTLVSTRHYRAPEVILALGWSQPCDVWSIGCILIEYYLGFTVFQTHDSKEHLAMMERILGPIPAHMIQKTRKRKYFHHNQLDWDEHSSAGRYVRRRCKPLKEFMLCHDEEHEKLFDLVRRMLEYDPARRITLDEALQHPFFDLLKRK
Serine/threonine-protein kinase pim-1, sequence (P11309 whole entry): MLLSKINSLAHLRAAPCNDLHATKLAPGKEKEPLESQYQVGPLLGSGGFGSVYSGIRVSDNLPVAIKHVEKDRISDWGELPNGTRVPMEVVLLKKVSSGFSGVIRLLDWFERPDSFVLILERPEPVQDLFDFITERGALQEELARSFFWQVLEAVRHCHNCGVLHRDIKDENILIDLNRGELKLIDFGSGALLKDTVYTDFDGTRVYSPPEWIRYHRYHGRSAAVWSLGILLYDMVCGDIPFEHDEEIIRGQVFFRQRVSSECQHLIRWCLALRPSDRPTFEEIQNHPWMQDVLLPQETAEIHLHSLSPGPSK
Cannabinoid receptor 1, sequence (P21554 whole entry): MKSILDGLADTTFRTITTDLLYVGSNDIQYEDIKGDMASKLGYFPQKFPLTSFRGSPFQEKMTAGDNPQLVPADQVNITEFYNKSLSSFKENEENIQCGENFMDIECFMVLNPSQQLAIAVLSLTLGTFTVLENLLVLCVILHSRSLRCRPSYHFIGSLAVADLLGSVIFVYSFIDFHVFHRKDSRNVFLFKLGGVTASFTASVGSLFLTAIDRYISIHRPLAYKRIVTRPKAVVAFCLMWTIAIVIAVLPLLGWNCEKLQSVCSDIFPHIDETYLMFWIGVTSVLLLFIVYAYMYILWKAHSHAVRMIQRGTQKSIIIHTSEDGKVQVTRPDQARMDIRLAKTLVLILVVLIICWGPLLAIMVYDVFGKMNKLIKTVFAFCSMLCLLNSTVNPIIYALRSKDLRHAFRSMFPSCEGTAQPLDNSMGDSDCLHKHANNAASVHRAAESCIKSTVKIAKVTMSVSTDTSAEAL
Dual specificity protein kinase CLK1, sequence (P22518 whole entry, the tested form may be a part): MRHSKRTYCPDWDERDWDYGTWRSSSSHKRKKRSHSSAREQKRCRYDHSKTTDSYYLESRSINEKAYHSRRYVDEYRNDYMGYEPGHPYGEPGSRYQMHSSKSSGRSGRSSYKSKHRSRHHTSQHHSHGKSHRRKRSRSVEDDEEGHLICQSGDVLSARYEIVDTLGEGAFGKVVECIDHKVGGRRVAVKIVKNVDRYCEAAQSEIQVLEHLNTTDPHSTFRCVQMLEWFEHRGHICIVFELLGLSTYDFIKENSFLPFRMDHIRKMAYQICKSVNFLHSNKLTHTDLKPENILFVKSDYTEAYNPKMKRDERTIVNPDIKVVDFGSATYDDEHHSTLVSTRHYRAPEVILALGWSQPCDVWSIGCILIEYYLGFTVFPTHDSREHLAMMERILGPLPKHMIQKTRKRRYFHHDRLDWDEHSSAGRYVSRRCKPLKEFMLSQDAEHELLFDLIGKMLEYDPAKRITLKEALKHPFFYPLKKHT

Compound	pIC50 [1]	IC50 [2]	IC50 at 24 h [3]	pIC50 [4]	pEC50 (HT-22 [5])	pIC50 [6]	pIC50 [7]	pIC50 [8]	Activity (Cannabinoid receptor 1)	pIC50 [9]	Activity (U2OS)	pIC50 [10]	pIC50 [11]	pIC50 [12]	deltaCT (HT-22 [13])	Activity [14]	Activity (Cannabinoid receptor 1; filed as antagonist)	IC50 (Casein kinase 2)	EC50 at 24 h [3]
O=C1NC(N2CCN(c3ccc(F)cc3)CC2)=N/C1=C\c1ccc2c(c1)OCCO2	5.00	8200 nM	> 20000 nM	5.68	4.85	5.66	5.51	5.03	16%	≤ 5.00	8.1	5.64	5.68	< 5.00	–	–	–	–	–
C/C(=C1/N=C(Nc2ccccc2)NC1=O)c1ccc2c(c1)OCO2	< 5.00	–	> 20000 nM	≤ 5.00	–	5.80	5.07	–	-42.1%	< 5.00	5.8	5.23	–	< 5.00	0.38	–	–	–	–
Cc1ccc(NC2=N/C(=C\c3ccc4c(c3)OCO4)C(=O)N2)cc1	6.00	7300 nM	–	7.28	5.49	7.47	7.74	5.46	–	7.28	8.4	7.25	6.49	–	2.29	Non-Toxic	90.8%	1700 nM	–
CN1CCN(c2ccc(NC3=N/C(=C\C4=COc5ccccc5O4)C(=O)N3)cc2)CC1	7.17	120 nM	> 20000 nM	7.77	4.92	8.10	8.15	6.29	-1.4%	7.70	22	7.72	7.85	5.96	–	–	–	450 nM	–
CN1C(=O)/C(=C/c2ccc3c(c2)OCO3)N=C1Nc1ccccc1	6.30	750 nM	–	6.85	4.85	7.10	7.03	≤ 5.00	-5.5%	5.49	7.9	6.96	6.06	5.85	4.42	Non-Toxic	–	> 10000 nM	–
CN1CCN(c2ccc(NC3=N/C(=C\c4ccc5c(c4)OCO5)C(=O)N3)cc2)CC1	7.46	120 nM	–	7.64	< 4.70	7.30	7.92	5.96	-14.5%	–	24.9	7.80	7.60	6.10	7.48	Non-Toxic	–	1200 nM	–
COc1cccc(/C=C2\N=C(Nc3ccccc3)NC2=O)c1	< 5.00	–	–	≤ 5.00	5.14	< 5.00	< 5.00	5.51	–	–	5.7	5.30	–	–	–	–	71.9%	–	> 20000 nM
O=C1NC(Nc2ccccc2)=N/C1=C\c1ccc2c(c1)CCCO2	5.74	> 10000 nM	> 20000 nM	6.92	5.46	6.92	6.92	5.92	–	6.44	4.8	6.85	6.38	≤ 5.00	–	–	94%	2200 nM	–
CCCNC1=N/C(=C\c2ccc3c(c2)OCO3)C(=O)N1C	6.25	1400 nM	–	6.96	< 4.70	7.02	6.34	5.49	-15.8%	6.26	6.8	6.92	5.92	5.60	3.72	Non-Toxic	–	> 10000 nM	–
O=C1NC(Nc2ccccn2)=N/C1=C\c1ccc2c(c1)OCO2	6.66	1700 nM	–	7.14	< 4.70	7.48	7.36	6.32	-18.3%	6.70	5.5	7.28	6.51	6.29	–	–	–	130 nM	> 20000 nM
COc1ccc(/C=C2\N=C(Nc3ccccc3)NC2=O)cc1	< 5.00	–	> 20000 nM	6.47	5.28	6.66	6.77	≤ 5.00	–	6.26	5.8	6.55	5.68	–	–	–	92.2%	2100 nM	–
O=C1NC(Nc2ccccc2)=NC1Cc1ccc2c(c1)OCO2 (stereo not given)	< 5.00	> 10000 nM	–	5.20	–	< 5.00	5.29	–	–	< 5.00	–	5.25	< 5.00	< 5.00	–	–	–	–	> 20000 nM
CN(C1=N/C(=C\c2ccc3c(c2)OCO3)C(=O)N1)c1ccccc1	5.92	6200 nM	–	6.51	< 4.70	6.49	6.42	5.70	-9.1%	6.17	4.7	6.89	5.74	5.59	–	–	–	2100 nM	> 20000 nM
Cc1ccc(NC2=N/C(=C\c3ccc4c(c3)OCO4)C(=O)N2)cc1C	5.66	> 10000 nM	–	6.55	5.57	7.26	6.89	< 5.00	–	6.28	6.6	6.80	5.77	< 5.00	–	–	51.7%	> 10000 nM	> 20000 nM
